Test results as given in ChEMBL document CHEMBL5338773, “First-in-Class Selective Inhibitors of the Lysine Acetyltransferase KAT8” (J Med Chem, 2023).
Active and inactive are the calls of the source. The rule behind the calls is not given here.

What was measured:
[1] = molecular target: Histone acetyltransferase p300 (Homo sapiens) (UniProt Q09472); assay: Inhibition of recombinant human KAT3B (1287 to 1673 residues) using histone H3 peptide and [3H]-acetyl-coA as substrates at 200 uM incubated for 1 hrs by liquid scintillation counter analysis
[2] = molecular target: Histone acetyltransferase KAT2B (Homo sapiens) (UniProt Q92831); assay: Inhibition of recombinant human KAT2B (492 to 658 residues) using histone H3 peptide and [3H]-acetyl-coA as substrates at 200 uM incubated for 1 hrs by liquid scintillation counter analysis
[3] = molecular target: Histone acetyltransferase KAT2A (Homo sapiens) (UniProt Q92830); assay: Inhibition of recombinant human KAT2A (323 to 837 residues) using histone H3 peptide and [3H]-acetyl-coA as substrates at 200 uM incubated for 1 hrs by liquid scintillation counter analysis
Homo sapiens = species on record: Homo sapiens; assay: Inhibition of human recombinant KDAC1 using Boc-Lys-(Ac)-AMC as substrate at 50 to 100 uM incubated for 45 mins by fluorescence microplate reader analysis; conditions: dose 50-100 µM
[4] = molecular target: Histone deacetylase 2 (Homo sapiens) (UniProt Q92769); assay: Inhibition of human recombinant KDAC2 using Boc-Lys-(Ac)-AMC as substrate at 50 to 100 uM incubated for 45 mins by fluorescence microplate reader analysis; conditions: dose 50-100 µM
[5] = molecular target: T1, Histone acetyltransferase KAT8 (Homo sapiens) (UniProt Q9H7Z6); assay: Reversible inhibition of N-terminal 6His tagged KAT8 (173 to 458 residues) (unknown origin) expressed in Escherichia coli BL21(DE3) using biotinylated histone H4 peptide and [3H]Acetyl-CoA as substrates at 10XIC50 preincubated for 30 mins followed by dilution and substrate addition and measured upto 240 mins by MicroBeta microplate counter analysis; conditions: time 270.0 min
T1 sequence (whole entry): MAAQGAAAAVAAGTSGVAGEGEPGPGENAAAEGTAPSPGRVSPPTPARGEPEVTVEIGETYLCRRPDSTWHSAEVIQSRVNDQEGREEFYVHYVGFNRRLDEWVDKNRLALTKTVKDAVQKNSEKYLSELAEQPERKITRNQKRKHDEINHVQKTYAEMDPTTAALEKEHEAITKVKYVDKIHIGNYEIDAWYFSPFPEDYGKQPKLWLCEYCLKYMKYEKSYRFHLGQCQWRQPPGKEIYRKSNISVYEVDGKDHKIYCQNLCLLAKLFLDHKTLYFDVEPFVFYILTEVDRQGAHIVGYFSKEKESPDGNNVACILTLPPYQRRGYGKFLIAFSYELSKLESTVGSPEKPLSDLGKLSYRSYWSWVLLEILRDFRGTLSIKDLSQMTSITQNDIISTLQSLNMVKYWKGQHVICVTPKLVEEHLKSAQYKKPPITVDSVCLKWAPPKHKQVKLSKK

[6] = molecular target: T1, Histone acetyltransferase KAT8 (Homo sapiens); assay: Binding affinity to KAT8 in human HT-29 cells at 59 degreeC at 100 nM incubated for 4 hrs by […] analysis; type: cell-based
[7] = molecular target: T1, Histone acetyltransferase KAT8 (Homo sapiens); assay: Binding affinity to KAT8 in human HT-29 cells assessed as stabilization of enzyme against thermal induced aggregation at 59 degreeC at 100 nM incubated for 4 hrs by Western blot analysis; type: cell-based
[8] = molecular target: T1, Histone acetyltransferase KAT8 (Homo sapiens); assay: Inhibition of human KAT8 in human HT-29 cells assessed as decrease in histone H4K16 acetylation level at 10 to 50 uM incubated for 24 hrs by Western blot analysis; type: cell-based; conditions: dose 10-50 µM
[9] = molecular target: T1, Histone acetyltransferase KAT8 (Homo sapiens); assay: Inhibition of human KAT8 in human HT-29 cells assessed as change in KAT8 expression level at 10 to 50 uM incubated for 24 hrs by Western blot analysis; type: cell-based; conditions: dose 10-50 µM
HCT-116 [10] = assay: Antiproliferative activity against human HCT-116 cells assessed as cell proliferation inhibition at 10 to 100 uM incubated for 72 hrs by MTT assay; type: functional, cell-based; conditions: dose 10-100 µM
NCI-H1299 [11] = assay: Antiproliferative activity against human NCI-H1299 cells assessed as cell proliferation inhibition at 10 to 100 uM incubated for 72 hrs by MTT assay; type: functional, cell-based; conditions: dose 10-100 µM
A549 = assay: Antiproliferative activity against human A549 cells assessed as cell proliferation inhibition at 10 to 100 uM incubated for 72 hrs by MTT assay; type: functional, cell-based; conditions: dose 10-100 µM
HT-29 [12] = assay: Antiproliferative activity against human HT-29 cells assessed as cell proliferation inhibition at 10 to 100 uM incubated for 72 hrs by MTT assay; type: functional, cell-based; conditions: dose 10-100 µM
U-251 = assay: Antiproliferative activity against human U-251 cells assessed as cell proliferation inhibition at 10 to 100 uM incubated for 72 hrs by MTT assay; type: functional, cell-based; conditions: dose 10-100 µM
AHH-1 = assay: Cytotoxicity against human AHH-1 cells assessed as inhibition of cell viability at 25 to 200 uM incubated for 72 hrs by MTT assay; type: toxicity, cell-based; conditions: ahh-1, 72 h, dose 25-200 µM
[13] = Cytotoxicity against human Intestinal epithelial cells assessed as inhibition of cell viability at 25 to 200 uM incubated for 72 hrs by MTT assay; type: toxicity, cell-based; conditions: dose 25-200 µM
[14] = Cytotoxicity against human primary lung fibroblast assessed as inhibition of cell viability at 25 to 200 uM incubated for 72 hrs by MTT assay; type: toxicity, cell-based; conditions: dose 25-200 µM
HT-29 [15] = assay: Induction of cell cycle arrest in human HT-29 cells assessed as increase in number of cells at sub-G1 phase with DNA hypodiploid at 100 uM incubated for 72 hrs by PI-staining based flow cytometry (Rvb=2%); type: functional
HCT-116 [16] = assay: Induction of cell cycle arrest in human HCT-116 cells assessed as increase in number of cells at sub-G1 phase with DNA hypodiploid at 50 uM incubated for 72 hrs by PI-staining based flow cytometry (Rvb=2%); type: functional
HCT-116 [17] = assay: Induction of cell cycle arrest in human HCT-116 cells assessed as increase in number of cells at sub-G1 phase with DNA hypodiploid at 100 uM incubated for 72 hrs by PI-staining based flow cytometry (Rvb=2%); type: functional
HeLa = assay: Induction of cell cycle arrest in human HeLa cells assessed as increase in number of cells at sub-G1 phase with DNA hypodiploid at 100 uM incubated for 72 hrs by PI-staining based flow cytometry (Rvb=2%); type: functional
HCT-116 [18] = assay: Effect on cell cycle progression in human HCT-116 cells assessed as changes in cell cycle stages at 50 to 100 uM incubated for 72 hrs by PI-staining based flow cytometry; type: functional; conditions: dose 50-100 µM
HCT-116 [19] = assay: Induction of apoptosis in human HCT-116 cells assessed as slight increase in apoptotic cells at 50 to 100 uM incubated for 72 hrs by Annexin V-FITC staining based flow cytometry; type: functional, cell-based; conditions: dose 50-100 µM
HCT-116 [20] = assay: Downregulation of UCP2 mRNA expression in human HCT-116 cells at 100 uM incubated for 48 hrs by qRT-PCR analysis; type: functional, cell-based
NCI-H1299 [21] = assay: Induction of autophagy in human NCI-H1299 cells stably expressing EGFP-LC3 assessed as change in LC3-II/LC3-I ratio at 10 to 100 uM incubated for 48 hrs by Western blot analysis; type: functional, cell-based; conditions: dose 10-100 µM
NCI-H1299 [22] = assay: Induction of autophagy in human NCI-H1299 cells stably expressing EGFP-LC3 assessed as increase in p62 expression level at 10 to 100 uM incubated for 48 hrs by Western blot analysis; type: functional, cell-based; conditions: dose 10-100 µM
[23] = Thiol reactivity of compound at pH 7.5 buffer at 0.5 mM and measured upto 24 hrs in presence of DTT and BME by HPLC analysis; type: physicochemical; conditions: pH 7.5, 24 h, 500 µM

Sequence of Histone acetyltransferase KAT2A (Homo sapiens) (Q92830 2-837 limits assumed): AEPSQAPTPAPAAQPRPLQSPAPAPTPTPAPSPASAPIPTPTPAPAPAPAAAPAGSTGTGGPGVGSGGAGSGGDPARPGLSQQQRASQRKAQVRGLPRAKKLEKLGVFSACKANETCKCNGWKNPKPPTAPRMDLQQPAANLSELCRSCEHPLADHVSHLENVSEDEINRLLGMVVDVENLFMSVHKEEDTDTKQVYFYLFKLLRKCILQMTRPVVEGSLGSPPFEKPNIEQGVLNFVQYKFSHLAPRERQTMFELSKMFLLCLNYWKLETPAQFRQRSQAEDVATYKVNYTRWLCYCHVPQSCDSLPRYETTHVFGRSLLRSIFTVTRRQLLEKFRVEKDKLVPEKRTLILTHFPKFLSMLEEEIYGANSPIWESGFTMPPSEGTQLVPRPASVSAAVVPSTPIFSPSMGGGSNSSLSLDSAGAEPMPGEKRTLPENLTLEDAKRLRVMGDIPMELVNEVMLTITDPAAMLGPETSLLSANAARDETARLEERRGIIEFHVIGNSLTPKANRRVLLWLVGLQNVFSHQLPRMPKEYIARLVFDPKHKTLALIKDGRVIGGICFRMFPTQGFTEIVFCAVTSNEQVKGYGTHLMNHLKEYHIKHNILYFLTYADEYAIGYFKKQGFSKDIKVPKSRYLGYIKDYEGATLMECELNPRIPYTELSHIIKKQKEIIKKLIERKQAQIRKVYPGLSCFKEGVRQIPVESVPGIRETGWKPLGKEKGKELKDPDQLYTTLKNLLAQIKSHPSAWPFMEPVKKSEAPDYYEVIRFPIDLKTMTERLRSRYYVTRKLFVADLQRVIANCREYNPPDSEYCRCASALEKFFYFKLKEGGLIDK
Sequence of Histone deacetylase 2 (Homo sapiens) (Q92769 whole entry, the tested form may be a part): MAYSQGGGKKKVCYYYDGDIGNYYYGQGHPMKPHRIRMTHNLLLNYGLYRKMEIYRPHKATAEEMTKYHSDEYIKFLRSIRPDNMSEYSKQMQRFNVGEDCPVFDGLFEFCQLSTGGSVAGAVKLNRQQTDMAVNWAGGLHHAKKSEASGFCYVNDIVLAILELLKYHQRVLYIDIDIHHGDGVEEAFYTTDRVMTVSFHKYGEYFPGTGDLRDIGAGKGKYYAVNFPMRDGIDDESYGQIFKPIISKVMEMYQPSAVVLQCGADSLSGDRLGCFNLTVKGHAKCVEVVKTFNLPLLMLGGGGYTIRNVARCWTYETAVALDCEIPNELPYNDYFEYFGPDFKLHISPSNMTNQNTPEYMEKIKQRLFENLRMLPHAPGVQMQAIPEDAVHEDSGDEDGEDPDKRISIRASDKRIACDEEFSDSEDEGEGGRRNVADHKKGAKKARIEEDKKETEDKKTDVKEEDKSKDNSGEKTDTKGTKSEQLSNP
Sequence of Histone acetyltransferase KAT2B (Homo sapiens) (Q92831 whole entry, looked up, the tested form may be a part): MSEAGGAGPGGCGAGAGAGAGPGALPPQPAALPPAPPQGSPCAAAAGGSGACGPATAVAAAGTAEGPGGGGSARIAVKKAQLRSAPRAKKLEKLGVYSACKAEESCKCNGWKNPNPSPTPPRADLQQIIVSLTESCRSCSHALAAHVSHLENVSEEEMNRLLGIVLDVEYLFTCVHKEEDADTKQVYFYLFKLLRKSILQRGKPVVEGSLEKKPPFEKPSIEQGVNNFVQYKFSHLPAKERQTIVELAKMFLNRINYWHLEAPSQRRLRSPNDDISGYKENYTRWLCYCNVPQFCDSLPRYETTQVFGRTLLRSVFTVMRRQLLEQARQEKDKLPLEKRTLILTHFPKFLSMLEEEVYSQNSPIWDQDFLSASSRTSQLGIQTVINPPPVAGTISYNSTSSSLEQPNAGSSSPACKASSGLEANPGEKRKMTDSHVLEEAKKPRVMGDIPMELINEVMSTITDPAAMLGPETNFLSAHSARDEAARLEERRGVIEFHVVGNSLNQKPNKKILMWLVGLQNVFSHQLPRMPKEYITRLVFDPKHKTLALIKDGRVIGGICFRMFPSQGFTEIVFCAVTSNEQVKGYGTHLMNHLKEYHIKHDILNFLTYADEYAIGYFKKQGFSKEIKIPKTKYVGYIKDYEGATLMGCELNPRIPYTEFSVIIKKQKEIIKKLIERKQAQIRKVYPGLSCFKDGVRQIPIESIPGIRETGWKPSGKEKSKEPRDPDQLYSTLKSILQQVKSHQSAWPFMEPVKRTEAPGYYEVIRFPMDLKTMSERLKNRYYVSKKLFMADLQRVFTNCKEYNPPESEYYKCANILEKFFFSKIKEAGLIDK
Sequence of Histone acetyltransferase p300 (Homo sapiens) (Q09472 whole entry, the tested form may be a part): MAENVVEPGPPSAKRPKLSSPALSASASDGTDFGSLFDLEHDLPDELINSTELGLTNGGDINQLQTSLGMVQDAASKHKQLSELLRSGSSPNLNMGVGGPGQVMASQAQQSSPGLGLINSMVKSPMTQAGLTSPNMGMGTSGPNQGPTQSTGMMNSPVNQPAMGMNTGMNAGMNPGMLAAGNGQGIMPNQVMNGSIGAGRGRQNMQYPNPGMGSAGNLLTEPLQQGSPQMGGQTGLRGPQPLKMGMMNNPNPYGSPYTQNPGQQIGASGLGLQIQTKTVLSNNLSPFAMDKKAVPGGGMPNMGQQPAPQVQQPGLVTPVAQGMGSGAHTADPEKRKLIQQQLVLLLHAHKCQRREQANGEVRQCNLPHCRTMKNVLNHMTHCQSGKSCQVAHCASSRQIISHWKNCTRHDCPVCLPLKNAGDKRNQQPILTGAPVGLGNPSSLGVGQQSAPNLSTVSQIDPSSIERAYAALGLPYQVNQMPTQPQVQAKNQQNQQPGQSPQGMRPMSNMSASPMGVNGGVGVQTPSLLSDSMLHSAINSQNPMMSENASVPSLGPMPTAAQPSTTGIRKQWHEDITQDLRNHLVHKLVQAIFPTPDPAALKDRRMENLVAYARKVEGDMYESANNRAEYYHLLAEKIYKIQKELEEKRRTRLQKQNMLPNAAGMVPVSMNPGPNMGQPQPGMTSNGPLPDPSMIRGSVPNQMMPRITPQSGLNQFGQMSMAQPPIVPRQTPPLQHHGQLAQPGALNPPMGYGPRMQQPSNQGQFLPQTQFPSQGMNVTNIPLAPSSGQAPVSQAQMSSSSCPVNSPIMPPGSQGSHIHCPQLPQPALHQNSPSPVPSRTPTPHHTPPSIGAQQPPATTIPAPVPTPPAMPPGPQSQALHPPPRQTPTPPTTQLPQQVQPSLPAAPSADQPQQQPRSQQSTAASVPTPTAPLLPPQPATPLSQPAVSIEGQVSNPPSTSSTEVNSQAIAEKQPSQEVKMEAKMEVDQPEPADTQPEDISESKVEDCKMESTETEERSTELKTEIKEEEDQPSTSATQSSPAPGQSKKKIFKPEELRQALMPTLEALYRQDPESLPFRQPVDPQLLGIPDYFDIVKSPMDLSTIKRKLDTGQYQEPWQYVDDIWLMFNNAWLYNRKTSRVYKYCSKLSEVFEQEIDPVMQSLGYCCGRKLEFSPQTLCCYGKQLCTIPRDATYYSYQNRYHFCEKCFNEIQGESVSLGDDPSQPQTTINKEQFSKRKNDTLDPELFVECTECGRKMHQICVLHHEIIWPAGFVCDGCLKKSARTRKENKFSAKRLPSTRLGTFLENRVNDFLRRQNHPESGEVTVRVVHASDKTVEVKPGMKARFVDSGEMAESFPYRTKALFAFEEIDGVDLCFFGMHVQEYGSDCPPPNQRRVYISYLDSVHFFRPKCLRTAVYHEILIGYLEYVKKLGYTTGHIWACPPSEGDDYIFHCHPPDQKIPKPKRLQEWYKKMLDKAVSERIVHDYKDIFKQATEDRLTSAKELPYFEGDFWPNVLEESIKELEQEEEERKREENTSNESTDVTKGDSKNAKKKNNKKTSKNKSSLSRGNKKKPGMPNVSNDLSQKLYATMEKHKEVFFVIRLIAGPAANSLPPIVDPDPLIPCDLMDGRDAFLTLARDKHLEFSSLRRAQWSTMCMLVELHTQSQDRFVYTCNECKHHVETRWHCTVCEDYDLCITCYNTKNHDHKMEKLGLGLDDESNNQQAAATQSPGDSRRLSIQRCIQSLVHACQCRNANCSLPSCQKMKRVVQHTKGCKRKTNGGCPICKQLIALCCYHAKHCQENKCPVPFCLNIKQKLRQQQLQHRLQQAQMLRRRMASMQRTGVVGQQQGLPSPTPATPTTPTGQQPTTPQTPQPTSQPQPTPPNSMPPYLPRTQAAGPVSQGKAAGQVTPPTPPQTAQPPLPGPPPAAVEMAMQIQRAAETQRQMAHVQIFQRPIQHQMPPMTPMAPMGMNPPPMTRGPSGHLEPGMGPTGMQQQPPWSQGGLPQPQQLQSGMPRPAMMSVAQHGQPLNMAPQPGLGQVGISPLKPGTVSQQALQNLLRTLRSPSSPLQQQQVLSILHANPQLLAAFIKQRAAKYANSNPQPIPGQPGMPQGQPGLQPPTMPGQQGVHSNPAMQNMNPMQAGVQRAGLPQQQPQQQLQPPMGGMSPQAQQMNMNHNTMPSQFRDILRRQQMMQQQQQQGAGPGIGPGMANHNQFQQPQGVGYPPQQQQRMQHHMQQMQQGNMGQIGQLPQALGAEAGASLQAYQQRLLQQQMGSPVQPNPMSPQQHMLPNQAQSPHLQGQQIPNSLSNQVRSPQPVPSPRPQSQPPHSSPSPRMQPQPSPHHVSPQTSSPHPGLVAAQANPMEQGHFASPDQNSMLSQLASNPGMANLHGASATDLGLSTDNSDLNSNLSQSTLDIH

inhibition [1]	inhibition [2]	inhibition [3]	inhibition (Homo sapiens)	inhibition [4]	inhibition [5]	Activity [6]	Activity [7]	inhibition [8]	inhibition [9]	SMILES	Activity (HCT-116 [10])	Activity (NCI-H1299 [11])	Activity (A549)	Activity (HT-29 [12])	Activity (U-251)	Activity (AHH-1)	Activity [13]	Activity [14]	Activity (HT-29 [15]) [%]	Activity (HCT-116 [16]) [%]	also measured
inactive	inactive	inactive	inactive	inactive	Active	Active	Active	Active	inactive	CC1=NN(c2ccc(C(=O)O)cc2)C(=O)/C1=C\c1ccc[nH]1	Dose-Dependent Effect	Dose-Dependent Effect	Dose-Dependent Effect	Active	inactive	Non-Toxic	Non-Toxic	Non-Toxic	15	3	Activity (HCT-116 [17]): 6%; Activity (HeLa): 5%; Activity (HCT-116 [18]): inactive; Activity (HCT-116 [19]): Active; Activity (HCT-116 [20]): Active; Activity (NCI-H1299 [21]): Active; Activity (NCI-H1299 [22]): Active; Drug metabolism [23]: Not Active
inactive	inactive	inactive	inactive	inactive	Active	Active	Active	Active	inactive	O=C(O)c1ccc(N2N=C(c3ccccc3)/C(=C/c3ccc[nH]3)C2=O)cc1	Dose-Dependent Effect	Dose-Dependent Effect	Dose-Dependent Effect	Active	inactive	Non-Toxic	Non-Toxic	Non-Toxic	14	7	Activity (HCT-116 [17]): 13%; Activity (HeLa): 4%; Activity (HCT-116 [18]): inactive; Activity (HCT-116 [19]): Active; Activity (HCT-116 [20]): Active; Activity (NCI-H1299 [21]): Active; Activity (NCI-H1299 [22]): Active; Drug metabolism [23]: Not Active
